The target of test [1] is T1, human adenosine A2a receptor (Homo sapiens (Human), UniProt P29274). Nature of the test: Inhibition of NECA-induced cAMP accumulation in HEK 293 cells. To be noted: HEK 293 cells expressing human A2a; 100 nmol/l NECA; mean of four experiments. In kind it is cell-based. The procedure: The compounds of the present invention were tested to assess their capacity to inhibit cAMP accumulation induced by the A2A agonist 5′-N-ethylcarboxamidoadenosine (NECA).
cAMP quantitative determination was performed with an enzyme immunoassay system (cat. RPN2255, Amersham Biosciences) according to manufacturer's instructions. HEK 293 cells, stably expressing the human adenosine A2a receptor gene (PerkinElmer, Boston, Mass., USA, cat. RBHA2AC), were grown in Falcon flasks in DMEM (Cambrex, Verviers, Belgium) supplemented with 10% FBS (Cambrex), 1 mmol/l sodium pyruvate (Sigma-Aldrich, St. Louis, Mo., USA), and 0.4 mg/ml G418 (Sigma-Aldrich) at 37° C. in a 5% CO2 atmosphere. Cells were plated on 96-well dishes at a concentration of 10^3 cells/well 48 hours before test compound exposure. Before cell stimulation with the compounds, cells were treated for 10 min at 37° C. with 0.5 mmol/l of the phosphodiesterase inhibitor Ro 20-1724 (Sigma-Aldrich) and with 2 U/ml of adenosine deaminase (ADA, Sigma-Aldrich). Medium was then changed with fresh medium containing scalar concentrations of test compounds (10^−10-10^−4 mol/l) at 37° C. and, after 10 min, 100 nmol/l NECA was added. cAMP was extracted 20 min after and quantified.
Data were analyzed by nonlinear regression analysis with GraphPad PRISM commercial software. Test compound concentrations causing a half maximal inhibition of control values (IC50 calculated by GraphPad Prism software) was reported (mean±SEM of four independent experiments).
For orientation: Cyclic AMP is a second messenger, typically raised through Gs and lowered through Gi signalling.

Test [2] has as its target T1, human adenosine A2a receptor. The experiment in a line: A2a receptor competition binding assay ([3H]ZM241385). Particulars: membranes of HEK293 cells expressing human A2a; [3H]ZM241385 2 nmol/l; Ki from IC50 by Cheng and Prusoff. The protocol: HEK293 cells, stably expressing the human adenosine A2a receptor gene (PerkinElmer, Boston, Mass., USA, cat. RBHA2AC), were grown in Falcon flasks in DMEM (Cambrex, Verviers, Belgium) supplemented with 10% FBS (Cambrex), 1 mmol/l sodium pyruvate (Sigma-Aldrich, Saint Louis, Mo., USA), 0.4 mg/ml G418 (Sigma-Aldrich) at 37° C. in a 5% CO2 atmosphere. For radioligand binding experiments, the cells were collected at 80% of confluence, in 5 mmol/l Tris-HCl (Sigma-Aldrich), pH 7.4, containing 2 mmol/l EDTA, counted, washed in PBS (Cambrex), resuspended in incubation buffer A containing 50 mmol/l Tris-HCl, pH 7.4, 10 mmol/l MgCl2 (Sigma-Aldrich) and homogenized using an Ultra Turrax T25. The membranes were centrifuged and homogenized once again and the final pellet was stored at −80° C. until use. Prior to the competition binding assay, the pellet was resuspended in buffer A at the desired protein concentration and membrane suspension was incubated with 2 U/ml adenosine deaminase (ADA, Sigma-Aldrich) for 30 min at 37° C. to remove endogenous adenosine.
The protein concentration of membrane suspension was determined using the Bradford method (Pierce, Rockford, Ill., USA) with bovine albumin as standard. Competition binding experiments were performed by incubating membranes (5-10 μg of protein/sample) with a single concentration of the A2a antagonist [^3H]ZM241385 (Biotrend, Cologne, Germany) (2 nmol/l), in the presence of various concentrations (ranging from 10^−5 to 10^−11 mol/l) of test and reference compounds in 96-well filter plates (MultiScreen system, cat. MAFBN0B10, Millipore, Billerica, Mass., USA) for one h at 4° C. in a total volume of 200 μl/well of appropriate buffer (50 mmol/l Tris-HCl, pH 7.4, 10 mmol/l MgCl2). Nonspecific binding was determined in the presence of 10 μmol/l cold ZM241385 (Tocris, Ellisville, Mo., USA). At the end of incubation, bound and free radioligands were separated by filtering the 96-well filter plates using a Millipore filtration apparatus (MultiScreenHTS vacuum manifold). Filter plates were then washed several times with ice-cold buffer (50 mmol/l Tris-HCl, pH 7.4) and filter-bound radioactivity measured using a MicroBeta counter (PerkinElmer) after addition of 30 μl/well of OptiPhase SuperMix scintillation cocktail (PerkinElmer). Four experiments were performed in triplicate by JANUS® automated workstation (Perkin Elmer).
Data were analyzed by nonlinear regression analysis with GraphPad PRISM commercial software and expressed as IC50, defined as the concentration of compounds that inhibits 50% of [^3H]ZM241385 binding. Inhibitory binding constant (Ki) values were calculated from IC50 values according to the Cheng and Prusoff equation Ki=IC50/(1+[C]/Kd), where [C] is the concentration of the radioligand and Kd its dissociation constant.

For test [3], the system named is haloperidol-induced catalepsy in CD1 mice. Nature of the test: Haloperidol-induced catalepsy mice model. To be noted: oral 10, 20 or 40 mg/kg, haloperidol 2 mg/kg i.p., AUC of catalepsy time over 7 h. In kind it is in vivo. The procedure:
Haloperidol (2 mg/kg) was injected i.p. to CD1 mice 2.5 h before oral administration of ST3932 or ST4206. The latter were administered at doses of 10, 20 or 40 mg/kg.
Then, each CD1 mouse was gently placed by its forepaws on a wire at a height of 4.5 cm. Catalepsy was measured as the time (expressed in seconds) necessary for the animal to step down with at least one forepaw, with an end point of 60 seconds, time after which the mouse was gently removed from the wire. Then, catalepsy was scored every 60 min for seven h.
All data were expressed both as individual and mean values, plus or minus standard error (Mean±SEM) of catalepsy time in seconds. Statistical analysis was performed using sigma stat program. After calculation of AUC throughout 7 hours, the one-way ANOVA followed by Dunnett's test were used.

Test [4] has as its target human adenosine A1 receptor (Homo sapiens (Human), UniProt P30542). Nature of the test: A1 receptor competition binding assay ([3H]DPCPX). To be noted: membranes of CHO-K1 cells expressing human A1; [3H]DPCPX 1.7 nmol/l; Ki from IC50 by Cheng and Prusoff. The protocol:
Competition binding experiments have been performed incubating membranes from CHO-K1 cells stably transfected with the human adenosine A1 receptor (cat. ES-010-M400UA, Perkin Elmer, Boston, Mass., USA) (5-10 μg of protein/sample) with a single concentration of [3H]DPCPX (1.7 nmol/l) (Perkin Elmer), in the presence of various concentrations (ranging from 10^−5 to 10^−10 M) of cold DPCPX, ST4206 and ST4208 in 96-well filter plates (MultiScreen system, cat #MAFBN0B10, Millipore, Billerica, Mass., USA) for 60 min at 25° C. in a total volume of 200 μL/well of 25 mmol/l Hepes, 5 mmol/L MgCl2, 1 mmol/l CaCl2, 100 mmol/L NaCl, pH 7.4 (all from Sigma-Aldrich). Non-specific binding has been determined in the presence of 250 μmol/l of cold DPCPX (8-cyclopentyl-1,3-dipropylxanthine, Sigma-Aldrich). At the end of incubation, bound and free radioligands have been separated by filtering the 96-well filter plates using a Millipore filtration apparatus (MultiscreenHTS vacuum manifold). Filter plates have been washed several times with ice-cold buffer (50 mmol/l Tris-HCl, pH 7.4) and filter-bound radioactivity measured using a MicroBeta counter (PerkinElmer) after addition of 30 μL/well of OptiPhase SuperMix scintillation cocktail (PerkinElmer).
Data have been analyzed using nonlinear regression with GraphPad PRISM commercial software. Data will be expressed as test compound concentration causing a half maximal inhibition of control values (IC50). Inhibitory binding constant (Ki) values will be calculated from IC50 values, according to the Cheng and Prusoff equation K1=IC50/(1+[C]/Kd), where [C] is the concentration of the radioligand and Kd its dissociation constant.

Test [5] deals with 6-OHDA lesioned rats. Nature of the test: Enhancement of L-DOPA antiparkinsonian activity, 6-OHDA lesioned rats. To be noted: 10, 20, 40 mg/kg with threshold dose of L-Dopa (6 mg benserazide + 3 mg L-DOPA); 6-OHDA rats. In kind it is in vivo, Rats (Sprague Dawley). The procedure:
Rats (Sprague Dawley) under chloral hydrate (400 mg/kg) anaesthesia were placed in a Kopf stereotaxic apparatus. Through a stainless steel cannula, 6-OHDA was injected at a rate of 1 μl/min into the left medial forebrain bundle at coordinates A=−2.2, L=+1.5 and V=−7.8, according to the Pellegrino atlas. All rats, including shams, were treated with desipramine (10 mg/kg) 10 min before anaesthesia to prevent damage to noradrenergic neurons.
Two weeks after the 6-OHDA injection, all animals were tested for their contra lateral rotation capacity in response to 30 mg/kg i.p. benserazide followed by 50 mg/kg i.p. of L-Dopa 30 min later. Rats not showing at least 200 contra lateral rotations within the 3 h testing period were eliminated from the study. One week after this test, selected animals were randomized to be enrolled in three studies. Each study involved seven groups of eight animals.
Tested compounds (ST3829, ST3932 and ST4206) were dissolved in a solution containing 10% sucrose and 0.3% Tween 80 in sterile water in order to obtain three different dosage forms (i.e., 10, 20 and 40 mg/kg).
In groups 5, 6 and 7 benserazide was administered first, followed by the tested compound 25 min after and finally by L-DOPA 5 min later.

The test system of test [6] is battery of 51 different receptors. Nature of the test: Selectivity profile: affinity toward a battery of 51 different receptors. In kind it is binding, human. To be noted: tested at 10 μM. The text has this:
The majority of the 51 assays were human recombinant receptors of the following types: adenosine, adrenergic, cannabinoid, dopamine, GABA, histamine, melatonin, muscarinic, prostanoid and serotonin receptors belonging to non peptide receptors family; angiotensin-II, bradychinin, chemokines, cholecistokinin, endothelin, galanin, melacortin, neurokinin, neuropeptide Y, neurotensin, opioid and opioid like, somatostatin, vasoactive intestinal peptide and vasopressin receptors belonging to peptide receptors family; Ca^2+ channel, K^+ channel and Na^+ channel belonging to the ion channel family and dopamine, norepinephrine and serotonin belonging to the amine transporters receptors family.” These three compounds were tested at a concentration of 10 μM.

Structures are written as SMILES.

T1 sequence (P29274 whole entry): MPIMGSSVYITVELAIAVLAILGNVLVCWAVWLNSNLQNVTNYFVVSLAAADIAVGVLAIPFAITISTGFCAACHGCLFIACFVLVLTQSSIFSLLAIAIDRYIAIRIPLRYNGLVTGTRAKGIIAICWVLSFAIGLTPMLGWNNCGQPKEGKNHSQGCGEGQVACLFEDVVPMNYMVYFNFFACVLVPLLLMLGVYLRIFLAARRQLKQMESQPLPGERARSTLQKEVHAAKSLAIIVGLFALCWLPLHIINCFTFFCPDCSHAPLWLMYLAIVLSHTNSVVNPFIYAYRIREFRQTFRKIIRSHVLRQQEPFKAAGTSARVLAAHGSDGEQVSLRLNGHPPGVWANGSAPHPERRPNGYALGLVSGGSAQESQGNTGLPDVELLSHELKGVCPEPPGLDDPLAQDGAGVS
Chain of human adenosine A1 receptor (P30542 whole entry): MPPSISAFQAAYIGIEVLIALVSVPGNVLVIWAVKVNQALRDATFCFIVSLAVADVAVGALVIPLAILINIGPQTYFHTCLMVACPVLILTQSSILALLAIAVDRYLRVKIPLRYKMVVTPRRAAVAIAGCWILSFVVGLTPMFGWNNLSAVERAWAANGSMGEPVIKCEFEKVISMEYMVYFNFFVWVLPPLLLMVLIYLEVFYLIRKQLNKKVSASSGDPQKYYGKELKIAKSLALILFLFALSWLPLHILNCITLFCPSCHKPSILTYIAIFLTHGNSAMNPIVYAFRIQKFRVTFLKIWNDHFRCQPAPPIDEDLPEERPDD

Compound `C[C@H](O)CCc1nc(N)c2nc(-n3nccn3)n(C)c2n1` [Example 3, (S)-4-(6-Amino-9-methyl-8-[1,2,3]triazol-2-yl-9H-purin-2-yl)butan-2-ol] yielded an IC50 in test [1] of 260 nM. The compound further had a Ki in test [2] of 19 nM.
Consider `CC(=O)CCc1nc(N)c2nc(-n3nccn3)n(C)c2n1` [Example 7, 4-(6-Amino-9-methyl-8[1,2,3]triazol-2-yl-9H-purin-2-yl)-butan-2-one], for which the “antagonism of haloperidol-induced catalepsy” value in test [3] was “significantly antagonized haloperidol-induced catalepsy in a dose-dependent manner”. Further, the Ki in test [4] came out at 197 nM; in test [2], 12 nM. Moreover, the IC50 in test [1] stood at 990 nM. Further, in test [5], the “contralateral turning behaviour induced by L-Dopa” value is “increased the contralateral turning behaviour induced by L-Dopa”.
In the case of `CCCC(=O)c1nc(N)c2nc(-n3nccn3)n(C)c2n1` [Example 6, 1-(6-Amino-9-methyl-8-[1,2,3]triazol-2-yl-9H-purin-2-yl)-butan-1-one], the Ki in test [4] worked out at 216 nM; in test [2], 19 nM. 2920 nM corresponded to half-maximal inhibition in test [1] (IC50).
With `CC(O)CCc1nc(N)c2nc(-n3nccn3)n(C)c2n1` (stereo not drawn) [Example 2, 4-(6-Amino-9-methyl-8[1,2,3]triazol-2-yl-9H-purin-2-yl)butan-2-ol], the “affinity toward 51 receptors” value in test [6] was “none of them demonstrated any substantial affinity”. The “antagonism of haloperidol-induced catalepsy” value in test [3] was “significantly antagonized haloperidol-induced catalepsy in a dose-dependent manner”. For the same compound, the inhibition constant (Ki) in test [4] was 27 nM; in test [2], 8 nM. The same compound displayed a 50% inhibitory concentration (IC50) in test [1] of 450 nM. Further, in test [5], the “contralateral turning behaviour induced by L-Dopa” value is given as “increased the contralateral turning behaviour induced by L-Dopa”.
As to `CCCC(O)c1nc(N)c2nc(-n3nccn3)n(C)c2n1` (stereo not drawn) [Example 5, 1-(6-Amino-9-methyl-8-[1,2,3]triazol-2-yl-9H-purin-2-yl)butan-1-ol], in test [6], the “affinity toward 51 receptors” value is “none of them demonstrated any substantial affinity”. Besides, the Ki in test [4] is 120 nM; in test [2], 22 nM. Besides, half-maximal inhibition in test [1] (IC50) required 2320 nM. Also, in test [5], the “contralateral turning behaviour induced by L-Dopa” value is given as “efficacy of ST3829 at increasing the number of contralateral rotation”.
Regarding `Cn1c(-n2nccn2)nc2c(N)nc(CCCCO)nc21` [Example 1, 4-(6-Amino-9-methyl-8[1,2,3]triazol-2-yl-9H-purin-2-yl)butan-1-ol], the “affinity toward 51 receptors” value in test [6] is given as “none of them demonstrated any substantial affinity”. Moreover, the inhibition constant (Ki) in test [4] was found to be 51 nM; in test [2], 53 nM. Moreover, the half-inhibitory concentration (IC50) in test [1] was found to be 2120 nM.
As for `C[C@@H](O)CCc1nc(N)c2nc(-n3nccn3)n(C)c2n1` [Example 4, (R)-4-(6-Amino-9-methyl-8-[1,2,3]triazol-2-yl-9H-purin-2-yl)butan-2-ol], in test [1], the half-inhibitory concentration (IC50) was 420 nM. This compound also yielded an inhibitory constant (Ki) in test [2] of 8 nM.

Usually IC50 stands for the concentration at which inhibition is half-maximal. What is called Ki is a dissociation constant, usually derived from enzyme kinetics or from competition with a known ligand.

Source of the values: patent US9133197B2, “Oxidated derivatives of triazolylpurines useful as ligands of the adenosine A2A receptor and their use as medicaments” (SIGMA-TAU INDUSTRIE FARMACEUTICHE RIUNITE S.P.A., priority 2009, dated 2015).
